According to the NIST ThermoML archive (doi:10.1016/j.jct.2005.03.006):

Settings: Liquid, Buoyancy - hydrostatic balance

CO [methanol]
mass density [kg/m3]
Settings	298.15 K	323.15 K	348.15 K	373.15 K	398.15 K	423.15 K	448.15 K	473.15 K	498.15 K
100 kPa	792.6	770.3	–	–	–	–	–	–	–
5000 kPa	796.2	774.2	748.9	721.1	690	652.8	610.4	553.4	–
9900 kPa	801	778.2	753.9	727.7	697.6	665.2	628.9	585	525
19700 kPa	808.4	787	764.1	739.3	712.8	683.6	652.4	620.2	584.8
29500 kPa	816	795	773.1	750.4	725.4	698.8	670.8	642	613.4
39300 kPa	823.8	803.4	782.6	760.2	736	710.8	685.6	660.6	636
49100 kPa	830	811	790.9	769.6	747.2	723.9	700	677.2	655
58900 kPa	836.3	818.2	798.9	778.2	757	735	713	691.2	670

CCc1ccccc1 [ethylbenzene]
mass density [kg/m3]
Settings	292.25 K	313.45 K	336.55 K	358.81 K	382.95 K	408.05 K	434.45 K	461.85 K	490.15 K
100 kPa	867	849.1	828.7	808.4	–	–	–	–	–
5000 kPa	870.8	853.1	833.6	814.5	793	770.4	746	718.6	687
9900 kPa	874	–	838.5	820	799	777.3	754.4	728.8	700
19700 kPa	881.3	864.4	845.8	827.6	808.1	788.5	768.1	746.2	720.9
29500 kPa	887.1	871.4	854	836.8	818.2	799.7	780.5	760	737.2
39300 kPa	893	877.6	860.9	844.8	827.1	809.5	791	771.7	750.7
49100 kPa	898.5	883.6	867.8	852.4	835.1	817.9	800.4	782.3	762.9
58900 kPa	903.8	889.4	873.6	858.6	842.5	826	808.6	791	773.2
